Patent US9388179B2, “N-substituted indazole sulfonamide compounds with selective activity in voltage-gated sodium channels” (Merck Sharp & Dohme Corp., priority 2012, dated 2016)

How the values were obtained:
[1] = target: T1, human Nav1.7 channels stably expressed in HEK 293 cells (Homo sapiens, UniProt Q15858); experiment: PatchXpress 7000 automated patch-clamp, inactivated state block; type: cell-based; conditions: PatchXpress technique; read-out: Nav 1.7 potency
T1 construct: expressed in transfected cells; host or cells: HEK 293
T1 sequence (Q15858 whole entry): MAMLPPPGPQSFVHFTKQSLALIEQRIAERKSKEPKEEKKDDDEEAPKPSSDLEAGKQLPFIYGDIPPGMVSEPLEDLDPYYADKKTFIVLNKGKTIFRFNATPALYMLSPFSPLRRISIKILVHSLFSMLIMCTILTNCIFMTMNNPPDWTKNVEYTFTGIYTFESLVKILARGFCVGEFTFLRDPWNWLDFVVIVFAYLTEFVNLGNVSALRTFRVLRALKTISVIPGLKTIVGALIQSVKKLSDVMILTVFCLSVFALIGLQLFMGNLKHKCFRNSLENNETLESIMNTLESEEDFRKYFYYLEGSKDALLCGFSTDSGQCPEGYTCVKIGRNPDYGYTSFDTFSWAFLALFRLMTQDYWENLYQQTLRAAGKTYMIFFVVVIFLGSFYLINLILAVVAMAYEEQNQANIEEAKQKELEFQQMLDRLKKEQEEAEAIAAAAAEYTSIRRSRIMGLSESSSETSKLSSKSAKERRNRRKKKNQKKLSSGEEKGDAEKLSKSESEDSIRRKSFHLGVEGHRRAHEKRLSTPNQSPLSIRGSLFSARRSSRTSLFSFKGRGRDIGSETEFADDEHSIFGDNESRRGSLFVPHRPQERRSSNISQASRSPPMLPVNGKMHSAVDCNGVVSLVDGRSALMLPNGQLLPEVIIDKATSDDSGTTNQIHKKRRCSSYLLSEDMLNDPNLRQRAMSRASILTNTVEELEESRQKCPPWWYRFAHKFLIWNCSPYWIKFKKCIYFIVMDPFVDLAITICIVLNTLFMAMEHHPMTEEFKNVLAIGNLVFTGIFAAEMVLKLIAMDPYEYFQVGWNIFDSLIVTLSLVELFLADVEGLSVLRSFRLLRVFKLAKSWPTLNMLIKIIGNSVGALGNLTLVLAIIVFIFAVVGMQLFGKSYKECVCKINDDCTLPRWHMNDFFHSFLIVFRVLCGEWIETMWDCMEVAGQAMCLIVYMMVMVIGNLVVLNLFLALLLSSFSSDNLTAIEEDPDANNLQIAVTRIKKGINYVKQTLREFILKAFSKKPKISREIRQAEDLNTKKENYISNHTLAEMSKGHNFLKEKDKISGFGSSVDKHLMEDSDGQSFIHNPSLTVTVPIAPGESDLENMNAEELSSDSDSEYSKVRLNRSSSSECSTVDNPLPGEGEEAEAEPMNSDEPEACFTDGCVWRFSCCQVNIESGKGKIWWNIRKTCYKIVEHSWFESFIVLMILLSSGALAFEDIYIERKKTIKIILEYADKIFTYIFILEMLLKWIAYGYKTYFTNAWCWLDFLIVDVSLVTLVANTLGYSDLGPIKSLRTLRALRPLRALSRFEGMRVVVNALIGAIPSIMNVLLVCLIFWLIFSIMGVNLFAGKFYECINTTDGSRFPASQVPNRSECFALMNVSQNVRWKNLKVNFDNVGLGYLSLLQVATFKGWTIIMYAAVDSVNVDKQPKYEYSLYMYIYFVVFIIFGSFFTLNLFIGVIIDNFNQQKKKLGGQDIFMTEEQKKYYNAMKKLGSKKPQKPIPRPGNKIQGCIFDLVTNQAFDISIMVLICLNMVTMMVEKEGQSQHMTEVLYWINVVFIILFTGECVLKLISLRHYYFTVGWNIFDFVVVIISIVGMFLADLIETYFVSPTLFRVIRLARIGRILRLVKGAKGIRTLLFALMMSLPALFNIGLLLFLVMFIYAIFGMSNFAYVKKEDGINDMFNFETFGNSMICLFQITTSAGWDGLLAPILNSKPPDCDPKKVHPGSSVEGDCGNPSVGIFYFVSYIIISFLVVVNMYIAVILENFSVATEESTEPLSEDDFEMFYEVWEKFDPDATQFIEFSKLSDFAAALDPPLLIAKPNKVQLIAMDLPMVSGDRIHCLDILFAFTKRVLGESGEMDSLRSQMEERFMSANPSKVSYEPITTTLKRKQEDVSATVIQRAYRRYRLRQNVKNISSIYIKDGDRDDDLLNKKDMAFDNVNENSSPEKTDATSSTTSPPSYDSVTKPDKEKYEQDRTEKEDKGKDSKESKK
Protocol: (§1) For all electrophysiology experiments, offline analysis was used to correct for current rundown and to determine percent inhibition as a function of drug concentration. IC50 values were determined by fitting to the Hill equation.
(§2) Sodium Current Measurements on the PatchXpress 7000®:
(§3) To measure inactivated state block of sodium channels, test compounds were characterized in an automated PatchXpress® assay (Molecular Devices) using a double-pulse protocol on human Nav1.7 and Nav1.5 channels stably expressed in HEK 293 cells. Cells were held at a potential 20 mV negative to V0.5 inact. An 8000 ms pre-pulse 7 mV positive to V0.5 inact was given followed by a hyperpolarizing 2 ms pulse to −120 mV and a 20 ms test pulse to −20 mV. Protocol was applied to cells in the absence, presence of compound and after washout. The temperature of PatchXpress instruments was maintained at 22° C. The following recording solutions were used. Internal solution (mM): 30 CsCl, 5 HEPES, 10 EGTA, 120 CsF, 5 NaF, 2 MgCl2. External solution (mM): 120 NMDG, 40 NaCl, 1 KCl, 0.5 MgCl2, 5 HEPES, 2.7 CaCl2.

[2] = target: T2, human Nav1.5 channels stably expressed in HEK 293 cells (Homo sapiens, UniProt Q14524); experiment: as above; type: cell-based; conditions: PatchXpress technique
T2 construct: expressed in transfected cells; host or cells: HEK 293
T2 sequence (Q14524 whole entry): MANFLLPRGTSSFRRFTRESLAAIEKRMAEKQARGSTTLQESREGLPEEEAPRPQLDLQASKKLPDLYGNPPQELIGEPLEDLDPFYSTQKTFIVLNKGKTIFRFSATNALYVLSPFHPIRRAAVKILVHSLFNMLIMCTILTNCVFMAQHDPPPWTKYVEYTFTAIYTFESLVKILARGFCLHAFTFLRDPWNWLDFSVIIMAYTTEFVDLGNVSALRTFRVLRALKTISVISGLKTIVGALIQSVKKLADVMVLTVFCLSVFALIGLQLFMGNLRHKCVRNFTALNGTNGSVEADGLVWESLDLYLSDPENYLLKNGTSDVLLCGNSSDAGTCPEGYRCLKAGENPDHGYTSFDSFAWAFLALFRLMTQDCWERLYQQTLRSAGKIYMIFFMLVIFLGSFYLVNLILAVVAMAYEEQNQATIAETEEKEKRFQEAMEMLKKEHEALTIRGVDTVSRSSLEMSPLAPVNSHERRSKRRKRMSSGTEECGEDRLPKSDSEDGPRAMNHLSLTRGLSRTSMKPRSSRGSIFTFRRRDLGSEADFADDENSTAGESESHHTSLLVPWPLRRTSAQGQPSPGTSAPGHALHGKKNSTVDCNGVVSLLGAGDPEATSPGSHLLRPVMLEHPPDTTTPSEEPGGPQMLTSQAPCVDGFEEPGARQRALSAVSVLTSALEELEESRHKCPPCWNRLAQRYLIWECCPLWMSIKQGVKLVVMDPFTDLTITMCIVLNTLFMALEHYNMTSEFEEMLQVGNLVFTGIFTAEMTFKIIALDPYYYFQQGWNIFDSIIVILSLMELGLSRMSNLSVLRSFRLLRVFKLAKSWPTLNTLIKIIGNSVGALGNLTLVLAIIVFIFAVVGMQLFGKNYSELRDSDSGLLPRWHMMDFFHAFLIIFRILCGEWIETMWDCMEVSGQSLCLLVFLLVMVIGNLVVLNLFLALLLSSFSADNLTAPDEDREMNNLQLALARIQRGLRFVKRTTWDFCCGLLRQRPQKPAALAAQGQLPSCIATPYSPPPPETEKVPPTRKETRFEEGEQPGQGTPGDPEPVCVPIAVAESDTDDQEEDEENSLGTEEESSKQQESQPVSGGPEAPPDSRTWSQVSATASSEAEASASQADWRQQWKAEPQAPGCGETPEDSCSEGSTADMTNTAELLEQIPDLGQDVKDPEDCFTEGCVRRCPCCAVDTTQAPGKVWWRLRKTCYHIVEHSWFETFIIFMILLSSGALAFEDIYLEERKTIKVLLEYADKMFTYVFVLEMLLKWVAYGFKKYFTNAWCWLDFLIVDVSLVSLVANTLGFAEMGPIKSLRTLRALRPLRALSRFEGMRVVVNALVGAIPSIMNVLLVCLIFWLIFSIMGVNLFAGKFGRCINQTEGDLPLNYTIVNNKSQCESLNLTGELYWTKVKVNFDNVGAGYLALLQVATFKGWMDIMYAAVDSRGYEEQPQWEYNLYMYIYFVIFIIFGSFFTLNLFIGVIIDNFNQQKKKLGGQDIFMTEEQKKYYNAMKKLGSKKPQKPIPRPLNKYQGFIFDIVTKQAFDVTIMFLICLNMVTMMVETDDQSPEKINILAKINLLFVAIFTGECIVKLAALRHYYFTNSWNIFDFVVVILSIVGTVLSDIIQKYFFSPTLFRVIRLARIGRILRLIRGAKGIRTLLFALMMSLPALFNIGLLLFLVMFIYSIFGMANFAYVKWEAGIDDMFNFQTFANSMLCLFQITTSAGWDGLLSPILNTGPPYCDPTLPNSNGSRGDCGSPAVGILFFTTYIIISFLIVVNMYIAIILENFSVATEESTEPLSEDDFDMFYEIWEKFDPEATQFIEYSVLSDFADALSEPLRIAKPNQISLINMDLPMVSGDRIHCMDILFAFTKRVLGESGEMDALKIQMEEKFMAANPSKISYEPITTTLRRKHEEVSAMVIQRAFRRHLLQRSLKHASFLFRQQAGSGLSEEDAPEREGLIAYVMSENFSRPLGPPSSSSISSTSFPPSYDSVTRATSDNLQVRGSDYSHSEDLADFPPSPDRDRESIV
Protocol: as §1, §2, §3

Structure (SMILES) | IC50 [1] [nM] | Ratio 1.5:1.7 = Nav 1.5 potency (nM)/Nav1.7 potency (nM) [2]
NC1CCc2cccc(Cn3ncc4cc(S(=O)(=O)Nc5nccs5)c(F)cc43)c2C1 (single isomer, unassigned) [Ex-26, (R or S)-1-[(7-amino-5,6,7,8-tetrahydronaphthalen-1-yl)methyl]-6-fluoro-N-1,3-thiazol-2-yl-1H-indazole-5-sulfonamide] | 5 | 3231
NC1CCc2cccc(Cn3ncc4cc(S(=O)(=O)Nc5cccc(F)n5)c(F)cc43)c2C1 (single isomer, unassigned) [Ex-31, (R or S)-1-[(7-amino-5,6,7,8-tetrahydronaphthalen-1-yl)methyl]-6-fluoro-N-(6-fluoropyridin-2-yl)-1H-indazole-5-sulfonamide] | 56 | 772
NCCCc1ccccc1Cn1ncc2cc(S(=O)(=O)Nc3nccs3)c(F)cc21 [Ex-27, 1-[2-(3-aminopropyl)benzyl]-6-fluoro-N-1,3-thiazol-2-yl-1H-indazole-5-sulfonamide] | 5 | 48
C[C@H](c1cccc2c1CNCC2)n1ncc2cc(S(=O)(=O)Nc3nccs3)c(F)cc21 [Ex-28, 6-fluoro-1-[(1R)-1-(1,2,3,4-tetrahydroisoquinolin-8-yl)ethyl]-N-1,3-thiazol-2-yl-1H-indazole-5-sulfonamide] | 25 | 870
NCC#Cc1ccccc1Cn1ncc2cc(S(=O)(=O)Nc3nccs3)c(F)cc21 [Ex-29, 1-[2-(3-aminoprop-1-yn-1-yl)benzyl]-6-fluoro-N-1,3-thiazol-2-yl-1H-indazole-5-sulfonamide] | 89 | 302
O=S(=O)(Nc1nccs1)c1cc2cnn(Cc3ccccc3C3=CCNCC3)c2cc1F [Ex-30, 6-fluoro-1-[2-(1,2,3,6-tetrahydropyridin-4-yl)benzyl]-N-1,3-thiazol-2-yl-1H-indazole-5-sulfonamide] | 82 | 326
NCCCc1ccccc1Cn1ncc2cc(S(=O)(=O)Nc3cccc(F)n3)c(F)cc21 [Ex-32, 1-[2-(3-amino-propyl)benzyl]-6-fluoro-N-(6-fluoropyridin-2-yl)-1H-indazole-5-sulfonamide] | 64 | 50
C[C@H](c1ccccc1CCCN)n1ncc2cc(S(=O)(=O)Nc3cccc(F)n3)c(F)cc21 [Ex-33, 1-{(1R)-1-[2-(3-amino-propyl)phenyl]ethyl}-6-fluoro-N-(6-fluoropyridin-2-yl)-1H-indazole-5-sulfonamide] | 381 | 228
NCc1ccccc1Cn1ncc2cc(S(=O)(=O)Nc3cccc(F)n3)c(F)cc21 [Ex-35, 1-[2-(aminomethyl)benzyl]-6-fluoro-N-(6-fluoropyridin-2-yl)-1H-indazole-5-sulfonamide] | 568 | 53
C[C@H](c1cccc2c1CNCC2)n1ncc2cc(S(=O)(=O)Nc3cccc(F)n3)c(F)cc21 [Ex-37, 6-fluoro-N-(6-fluoropyridin-2-yl)-1-[(1R)-1-(1,2,3,4-tetrahydroisoquinolin-8-yl)ethyl]-1H-indazole-5-sulfonamide] | 372 | 64
NCC(F)c1ccccc1Cn1ncc2cc(S(=O)(=O)Nc3cccc(F)n3)c(F)cc21 (centres unmarked) [Ex-38, 1-[2-(2-amino-1-fluoroethyl)benzyl]-6-fluoro-N-(6-fluoropyridin-2-yl)-1H-indazole-5-sulfonamide] | 185 | 162
NC1Cc2cccc(Cn3ncc4cc(S(=O)(=O)Nc5cccc(F)n5)c(F)cc43)c2C1 (centres unmarked) [Ex-39, 1-[(2-amino-2,3-dihydro-1H-inden-4-yl)methyl]-6-fluoro-N-(6-fluoropyridin-2-yl)-1H-indazole-5-sulfonamide] | 232 | 129
C[C@H](c1ccccc1C1CNC1)n1ncc2cc(S(=O)(=O)Nc3cccc(F)n3)c(F)cc21 [Ex-40, 1-[(1R)-1-(2-azetidin-3-ylphenyl)ethyl]-6-fluoro-N-(6-fluoropyridin-2-yl)-1H-indazole-5-sulfonamide] | 775 | 11
O=S(=O)(Nc1cccc(F)n1)c1cc2cnn(Cc3ccccc3I)c2cc1F [Ex-41, 6-fluoro-N-(6-fluoropyridin-2-yl)-1-(2-iodobenzyl)-1H-indazole-5-sulfonamide] | 1070 | 7
O=S(=O)(Nc1cccc(F)n1)c1cc2cnn(Cc3cccc4c3CNC4)c2cc1F [Ex-42, 1-(2,3-dihydro-1H-isoindol-4-ylmethyl)-6-fluoro-N-(6-fluoropyridin-2-yl)-1H-indazole-5-sulfonamide] | 825 | 36
C[C@H](c1ccccc1C1CCNCC1)n1ncc2cc(S(=O)(=O)Nc3cccc(F)n3)c(F)cc21 [Ex-43, 6-fluoro-N-(6-fluoropyridin-2-yl)-1-[(1R)-1-(2-piperidin-4-ylphenyl)ethyl]-1H-indazole-5-sulfonamide] | 584 | 16
NCC#Cc1ccccc1Cn1ncc2cc(S(=O)(=O)Nc3cccc(F)n3)c(F)cc21 [Ex-44, 1-[2-(3-aminoprop-1-yn-1-yl)benzyl]-6-fluoro-N-(6-fluoropyridin-2-yl)-1H-indazole-5-sulfonamide] | 2530 | 10
CC(C)(N)CC#Cc1ccccc1Cn1ncc2cc(S(=O)(=O)Nc3cccc(F)n3)c(F)cc21 [Ex-45, 1-[2-(4-amino-4-methylpent-1-yn-1-yl)benzyl]-6-fluoro-N-(6-fluoropyridin-2-yl)-1H-indazole-5-sulfonamide] | 2040 | 18
C[C@H](c1ccccc1C#CCN)n1ncc2cc(S(=O)(=O)Nc3cccc(F)n3)c(F)cc21 [Ex-46, 1-{(1R)-1-[2-(3-aminoprop-1-yn-1-yl)phenyl]ethyl}-6-fluoro-N-(6-fluoropyridin-2-yl)-1H-indazole-5-sulfonamide] | 423 | 41
C[C@H](c1ccccc1C#C[C@@H]1CCCC[C@@H]1N)n1ncc2cc(S(=O)(=O)Nc3cccc(F)n3)c(F)cc21 [Ex-47, 1-[(1R)-1-(2-{[(1S,2S)-2-amino-cyclohexyl]ethynyl}phenyl)ethyl]-6-fluoro-N-(6-fluoropyridin-2-yl)-1H-indazole-5-sulfonamide] | 546 | 15
C[C@H](c1ccccc1C1=CCNCC1)n1ncc2cc(S(=O)(=O)Nc3cccc(F)n3)c(F)cc21 [Ex-48, 6-fluoro-N-(6-fluoropyridin-2-yl)-1-{(1R)-1-[2-(1,2,3,6-tetrahydropyridin-4-yl)phenyl]ethyl}-1H-indazole-5-sulfonamide] | 1120 | 5
O=S(=O)(Nc1cccc(F)n1)c1cc2cnn(Cc3cccc4c3CNCC4F)c2cc1F (centres unmarked) [Ex-49, 6-fluoro-N-(6-fluoropyridin-2-yl)-1-[(4-fluoro-1,2,3,4-tetrahydro-isoquinolin-8-yl)methyl]-1H-indazole-5-sulfonamide] | 661 | 45
